Laboratory results: patent publication US20230071763A1, “AURISTATIN-RELATED COMPOUNDS, CONJUGATED AURISTATIN-RELATED COMPOUNDS, AND METHODS OF USE THEREOF” (CYTOMX THERAPEUTICS, INC., priority 2020, published 2023)

Experiments:
mouse CES-1C = biological target: T1, mouse CES-1C (Mus musculus, UniProt P23953); test: Stability to carboxylesterase, mouse CES-1C; format: in vitro ADME; settings: 37° C., in 48 hrs
T1 sequence (P23953 19-554): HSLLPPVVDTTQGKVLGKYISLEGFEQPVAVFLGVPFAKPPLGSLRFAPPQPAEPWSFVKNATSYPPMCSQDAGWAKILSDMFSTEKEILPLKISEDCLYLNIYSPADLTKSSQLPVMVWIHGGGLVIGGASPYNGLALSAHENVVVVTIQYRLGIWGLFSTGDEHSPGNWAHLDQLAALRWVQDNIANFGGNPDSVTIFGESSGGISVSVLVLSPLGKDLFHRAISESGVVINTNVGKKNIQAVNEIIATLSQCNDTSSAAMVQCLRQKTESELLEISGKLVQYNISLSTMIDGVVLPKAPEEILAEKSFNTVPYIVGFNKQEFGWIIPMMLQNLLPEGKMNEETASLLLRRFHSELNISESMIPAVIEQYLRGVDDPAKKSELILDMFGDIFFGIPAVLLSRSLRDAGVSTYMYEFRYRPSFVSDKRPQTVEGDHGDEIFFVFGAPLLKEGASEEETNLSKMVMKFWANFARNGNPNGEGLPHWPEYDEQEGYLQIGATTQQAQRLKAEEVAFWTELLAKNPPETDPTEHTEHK
Experimental: (§1) In a further exemplary study, the stability of the substrates were determined in the presence of […] different carboxylesterases (human or mouse CES-1 and CES-1C). In this study, the enzymes were activated prior to substrate introduction and then incubated with the substrate at 37° C. over a 48 h time period.

human CES-1C = biological target: T2, human CES-1C (Homo sapiens, UniProt P23141); test: Stability to carboxylesterase, human CES-1C; format: in vitro ADME; settings: 37° C., in 48 hrs
T2 sequence (P23141 18-566 isoform P23141-3 limits assumed): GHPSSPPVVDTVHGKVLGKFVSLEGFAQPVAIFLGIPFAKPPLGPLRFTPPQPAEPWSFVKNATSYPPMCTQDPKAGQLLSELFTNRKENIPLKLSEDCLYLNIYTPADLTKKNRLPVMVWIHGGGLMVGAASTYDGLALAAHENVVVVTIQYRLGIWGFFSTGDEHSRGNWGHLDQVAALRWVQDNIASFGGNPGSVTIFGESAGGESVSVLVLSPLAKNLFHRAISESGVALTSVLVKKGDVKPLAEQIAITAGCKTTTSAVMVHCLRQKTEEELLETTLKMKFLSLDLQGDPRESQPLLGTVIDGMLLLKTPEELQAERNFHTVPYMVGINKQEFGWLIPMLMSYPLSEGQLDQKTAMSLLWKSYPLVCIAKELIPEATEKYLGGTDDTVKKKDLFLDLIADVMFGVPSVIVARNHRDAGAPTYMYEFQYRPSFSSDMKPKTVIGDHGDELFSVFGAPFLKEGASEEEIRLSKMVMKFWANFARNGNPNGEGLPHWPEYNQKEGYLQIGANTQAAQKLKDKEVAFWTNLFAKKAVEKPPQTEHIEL
Experimental: as §1

tubulin = test: Binding to tubulin
PC3 = test: In vitro cytotoxicity (Presto Blue), PC3; format: cell-based; settings: 5 days treatment, percent survival
Experimental: (§2) In this assay, the test cells were plated and grown to an appropriate cell density (e.g., 1500 cells/well (50 μL per well) for SW780 cells). The cells were treated with the drug (MMATH or MMAE (monomethylauristatin E)) at concentrations ranging from 10 μM to 10^−4 nM in triplicate for 5 days. On the day 6 endpoint, the cells were incubated with 20 μL of Presto Blue @ 37 C for 2 hr and the signal was read on a Biotek synergy H4 plate reader. After media background was subtracted, the percent survival was calculated and plotted to determine the EC50, as shown in the exemplary results of Table 1.

SW780 cells = test: In vitro cytotoxicity (Presto Blue), SW780; format: cell-based; settings: 5 days treatment, percent survival
Experimental: as §2

SKOV3 = test: In vitro cytotoxicity (Presto Blue), SKOV3; format: cell-based; settings: 5 days treatment, percent survival
Experimental: as §2

HCC1954 = test: In vitro cytotoxicity (Presto Blue), HCC1954; format: cell-based; settings: 5 days treatment, percent survival
Experimental: as §2

SMILES	cleavage by mouse CES-1C (mouse CES-1C)	cleavage by human CES-1C (human CES-1C)	Kd (tubulin) [nM]	EC50 (PC3) [nM]	EC50 (SW780 cells; first SW780 column) [nM]	EC50 (SW780 cells; second SW780 column) [nM]	EC50 (SKOV3) [nM]	EC50 (HCC1954) [nM]	EC50 (PC3; Homo sapiens, PC-3, 120 h) [nM]	EC50 (SW780 cells; Homo sapiens, SW780, 120 h, first SW780 column) [nM]	EC50 (SW780 cells; Homo sapiens, SW780, 120 h, second SW780 column) [nM]	EC50 (SKOV3; Homo sapiens, SK-OV-3, 120 h) [nM]	EC50 (HCC1954; Homo sapiens, HCC1954, 120 h) [nM]
CC[C@H](C)C([C@@H](CC(=O)N1CCC[C@H]1[C@H](OC)[C@@H](C)C(=O)N[C@H](C)[C@@H](O)c1ccccc1)OC)N(C)C(=O)[C@@H](NC(=O)[C@@H](NC)C(C)C)C(C)C (some centres unmarked) [Cys-vc-MMAE]	completely cleaved	completely cleaved	–	–	–	–	–	–	–	–	–	–	–
CC[C@H](C)[C@@H]([C@@H](CC(=O)N1CCC[C@H]1[C@H](OC)[C@@H](C)C(=O)N[C@H](C)[C@@H](O)c1ccccc1)OC)N(C)C(=O)[C@@H](NC(=O)[C@@H](NC)C(C)C)C(C)C [MMAE, monomethylauristatin E]	–	–	69.9	0.24	0.31	0.22	0.19	0.03	–	–	–	–	–
CCC(C)C(C(CC(=O)N1CCCC1C(OC)C(C)C(=O)NC(CO)Cc1cccs1)OC)N(C)C(=O)C(NC(=O)C(NC)C(C)C)C(C)C (centres unmarked) [MMATH]	–	–	204	–	–	–	–	–	0.24	0.38	0.26	0.2	0.03
